Where a SMILES comes first, the peptide text is derived from it. The star is where a group is joined. Palmitoyl = CCCCCCCCCCCCCCCC(=O)*
Test system: MCF-7 breast cancer cells
Test: MTT cell toxicity assay in MCF-7 breast cancer cells
Type: cell-based
Conditions: for GI50 / TGI / growth inhibition / potency in MCF-7 cells (in words): MCF-7 cells, MTT; for GI50 / TGI: final 0.5% FBS, two days with compound; for TGI: concentration of total growth inhibition (cytostatic); for growth inhibition / potency in MCF-7 cells (in words): comparison with related peptides; for improvement of potency: N-terminal truncation, relative to peptide 12/3
Method: Cell Toxicity Assays: MCF-7 (breast cancer), T47D (breast cancer), Colo 205 (colon cancer), JM-1 (rat hepatoma), Sk Me1-2 (melanoma), PLC (human hepatoma), and HepG2 (human hepatoma) cells were obtained from American Type Cell Culture Collection. MCF-7 cells were grown in RPMI medium supplemented with 10% Fetal Bovine Serum. The rest of the cell lines were grown in DMEM medium supplemented with 10% Fetal Bovine Serum.
MTT 43-(4,5-Dimethylthiazol-2-yl)-2,5-diphenyltetrazolium) cell assay was performed using MCF-7 breast cancer cells. For the assay, cells were seeded into 96 well plates in medium containing 1% Fetal Bovine Serum and 100 μL of a cell suspension containing 5000 cells per well. Wells containing medium-only, and wells containing untreated cells, served as controls.
Seeded cells were allowed to attach and grow in the wells for 24 hours. A 5 mM stock solution of each peptide was made by dissolving approximately 1 mg of peptide in appropriate amount of DMSO. 2 mL dilutions were used to make 0.2 μM, 1.0 μM, 5.0 μM, and 10.0 μM concentration solutions of the compounds in serum-free medium. 100 μl, of the resulting 2× solutions were added to the corresponding wells to provide a final FBS concentration of 0.5% and 0.1 μM, 0.5 μM, 2.5 μM, and 5.0 μM dilutions of inhibitors. The cells were incubated with test compounds for two days. The control wells were given 100 μL of medium to ensure maximum similarity to the test wells so that all of the wells had 200 μL of medium during the growth period. An individual plate was made for Time Zero, to which the dye was added at the time of addition of compounds.
An alternative potency assay was used to test compounds in MCF-7 (breast cancer), T47D (breast cancer), Colo 205 (colon cancer), JM-1 (rat hepatoma), Sk MeI-2 (melanoma), PLC (human hepatoma), and HepG2 (human hepatoma) cells. Cells were suspended at a concentration of approximately 5000 cells per 100 μL of suspension in a 5% FBS RPMI medium. The cells were seeded into 96-count wells and incubated over night. After one day's incubation, the 5% FBS medium was aspirated and replaced with 100 μL of no serum RPMI medium containing 1 mg Bovine Serum Albumin (BSA) per 1 mL RPMI. Various concentrations of the test compounds were prepared by dilution in no-serum medium containing 1 mg BSA/mL. 75 μL of the test compound solutions were added to the wells, and the cells were allowed to incubate for 15-20 minutes, after which time 25 μL of human recombinant IGF-1 (Peprotech) solution was added to the wells to attain final concentrations of 10 ng IGF-1/mL medium. The control wells were given 175 μL of no-serum medium in addition to 25 μL of IGF-1 solution. An individual plate was made for time zero, in which the medium was also aspirated and replaced with 175 μL of no-serum medium and 25 μL of IGF-1. 15 μL of MTT dye was added and let incubate for 4 hours, after which time a stop stop solubilization solution was added. The stop solution lysed the cells and released the dye reduced by the remaining living cells. Absorbance of the wells at 544 nm was determined by a FLUOstar/POLARstar Galaxy (BMG Lab Technologies GmbH) microplate reader. The activity was calculated from the data using the formula: 100×[(T−T0)/(C−T0)] for T>T0 and 100×[(T−T0)/T0] for T<T0, wherein T0 corresponds to cell density at the time of drug addition, “T” is the optical density of the test well after a 48-h period of exposure to test drug, and “C” is the control optical density. The GI50 measures the growth inhibitory power of the test agent, and is defined as the concentration of test drug where 100×(T−T0)/(C−T0)=50. The TGI is the concentration of test drug where 100×(T−T0)/(C−T0)=0. Thus, the TGI signifies a cytostatic effect.

| Compound | GI50 [nM] | TGI [nM] | growth inhibition / potency in MCF-7 cells (in words) | improvement of potency (MCF-7) | increase in toxicity (MCF-7, relative to peptide 3) [fold] |
| --- | --- | --- | --- | --- | --- |
| CCCCCCCCCCCCCCCC(=O)N[C@H](C(=O)N[C@@H](Cc1c[nH]cn1)C(=O)N[C@@H](CCCNC(=N)N)C(=O)N[C@@H](CCCCN)C(=O)N[C@@H](CCCNC(=N)N)C(=O)N[C@@H](CC(N)=O)C(=O)N[C@@H](CC(N)=O)C(=O)N[C@@H](CO)C(=O)N[C@@H](CCCNC(=N)N)C(=O)N[C@@H](CC(C)C)C(=O)NCC(=O)N[C@@H](CC(N)=O)C(=O)NCC(=O)N[C@H](C(=O)N[C@@H](CC(C)C)C(=O)N[C@@H](Cc1ccc(O)cc1)C(=O)N[C@@H](C)C(=O)N[C@@H](CO)C(=O)N[C@H](C(N)=O)C(C)C)C(C)C)C(C)C [Peptide 6, Pal-VHRKRNNSRLGNGVLYASV-NH2] (Palmitoyl-VHRKRNNSRLGNGVLYASV-NH2) | 250 ± 30 | 1050 ± 100 | – | – | – |
| CCCCCCCCCCCCCCCC(=O)N[C@@H](Cc1c[nH]cn1)C(=O)N[C@@H](CCCNC(=N)N)C(=O)N[C@@H](CCCCN)C(=O)N[C@@H](CCCNC(=N)N)C(=O)N[C@@H](CC(N)=O)C(=O)N[C@@H](CC(N)=O)C(=O)N[C@@H](CO)C(=O)N[C@@H](CCCNC(=N)N)C(=O)N[C@@H](CC(C)C)C(=O)NCC(=O)N[C@@H](CC(N)=O)C(=O)NCC(=O)N[C@H](C(=O)N[C@@H](CC(C)C)C(=O)N[C@@H](Cc1ccc(O)cc1)C(=O)N[C@@H](C)C(=O)N[C@@H](CO)C(N)=O)C(C)C [Peptide 7, Pal-HRKRNNSRLGNGVLYAS-NH2] (Palmitoyl-HRKRNNSRLGNGVLYAS-NH2) | 1450 ± 100 | 4100 ± 300 | – | – | – |
| CCCCCCCCCCCCCCCC(=O)N[C@@H](Cc1c[nH]cn1)C(=O)N[C@@H](CCCNC(=N)N)C(=O)N[C@@H](CCCCN)C(=O)N[C@@H](CCCNC(=N)N)C(=O)N[C@@H](CC(N)=O)C(=O)N[C@@H](CC(N)=O)C(=O)N[C@@H](CO)C(=O)N[C@@H](CCCNC(=N)N)C(=O)N[C@@H](CC(C)C)C(=O)NCC(=O)N[C@@H](CC(N)=O)C(=O)NCC(=O)N[C@H](C(=O)N[C@@H](CC(C)C)C(=O)N[C@@H](Cc1ccc(O)cc1)C(=O)N[C@@H](C)C(N)=O)C(C)C [Peptide 8, Pal-HRKRNNSRLGNGVLYA-NH2] (Palmitoyl-HRKRNNSRLGNGVLYA-NH2) | 1400 ± 100 | >5000 | – | – | – |
| CCCCCCCCCCCCCCCC(=O)N[C@@H](Cc1c[nH]cn1)C(=O)N[C@@H](CCCNC(=N)N)C(=O)N[C@@H](CCCCN)C(=O)N[C@@H](CCCNC(=N)N)C(=O)N[C@@H](CC(N)=O)C(=O)N[C@@H](CC(N)=O)C(=O)N[C@@H](CO)C(=O)N[C@@H](CCCNC(=N)N)C(=O)N[C@@H](CC(C)C)C(=O)NCC(=O)N[C@@H](CC(N)=O)C(=O)NCC(=O)N[C@H](C(=O)N[C@@H](CC(C)C)C(N)=O)C(C)C [Peptide 10, Pal-HRKRNNSRLGNGVL-NH2] (Palmitoyl-HRKRNNSRLGNGVL-NH2) | 1800 ± 100 | >5000 | – | – | – |
| CCCCCCCCCCCCCCCC(=O)N[C@@H](Cc1c[nH]cn1)C(=O)N[C@@H](CCCNC(=N)N)C(=O)N[C@@H](CCCCN)C(=O)N[C@@H](CCCNC(=N)N)C(=O)N[C@@H](CC(N)=O)C(=O)N[C@@H](CC(N)=O)C(=O)N[C@@H](CO)C(=O)N[C@@H](CCCNC(=N)N)C(=O)N[C@@H](CC(C)C)C(=O)NCC(=O)N[C@@H](CC(N)=O)C(=O)NCC(=O)N[C@H](C(N)=O)C(C)C [Peptide 11, Pal-HRKRNNSRLGNGV-NH2] (Palmitoyl-HRKRNNSRLGNGV-NH2) | 2500 ± 100 | >5000 | – | – | – |
| CCCCCCCCCCCCCCCC(=O)N[C@@H](CCCNC(=N)N)C(=O)N[C@@H](CCCCN)C(=O)N[C@@H](CCCNC(=N)N)C(=O)N[C@@H](CC(N)=O)C(=O)N[C@@H](CC(N)=O)C(=O)N[C@@H](CO)C(=O)N[C@@H](CCCNC(=N)N)C(=O)N[C@@H](CC(C)C)C(=O)NCC(=O)N[C@@H](CC(N)=O)C(=O)NCC(=O)N[C@H](C(=O)N[C@@H](CC(C)C)C(=O)N[C@@H](Cc1ccc(O)cc1)C(=O)N[C@@H](C)C(=O)N[C@@H](CO)C(=O)N[C@H](C(=O)N[C@@H](CC(N)=O)C(N)=O)C(C)C)C(C)C [Peptide 12, Pal-RKRNNSRLGNGVLYASVN-NH2] (Palmitoyl-RKRNNSRLGNGVLYASVN-NH2) | 1200 ± 100 | 2700 ± 300 | decreased activity slightly | – | – |
| CCCCCCCCCCCCCCCC(=O)N[C@@H](CCCCN)C(=O)N[C@@H](CCCNC(=N)N)C(=O)N[C@@H](CC(N)=O)C(=O)N[C@@H](CC(N)=O)C(=O)N[C@@H](CO)C(=O)N[C@@H](CCCNC(=N)N)C(=O)N[C@@H](CC(C)C)C(=O)NCC(=O)N[C@@H](CC(N)=O)C(=O)NCC(=O)N[C@H](C(=O)N[C@@H](CC(C)C)C(=O)N[C@@H](Cc1ccc(O)cc1)C(=O)N[C@@H](C)C(=O)N[C@@H](CO)C(=O)N[C@H](C(=O)N[C@@H](CC(N)=O)C(N)=O)C(C)C)C(C)C [Peptide 13, Pal-KRNNSRLGNGVLYASVN-NH2] (Palmitoyl-KRNNSRLGNGVLYASVN-NH2) | 80 ± 7 | 500 ± 80 | – | more than ten-fold | 12.5 |
| CCCCCCCCCCCCCCCC(=O)N[C@@H](CCCNC(=N)N)C(=O)N[C@@H](CC(N)=O)C(=O)N[C@@H](CC(N)=O)C(=O)N[C@@H](CO)C(=O)N[C@@H](CCCNC(=N)N)C(=O)N[C@@H](CC(C)C)C(=O)NCC(=O)N[C@@H](CC(N)=O)C(=O)NCC(=O)N[C@H](C(=O)N[C@@H](CC(C)C)C(=O)N[C@@H](Cc1ccc(O)cc1)C(=O)N[C@@H](C)C(=O)N[C@@H](CO)C(=O)N[C@H](C(=O)N[C@@H](CC(N)=O)C(N)=O)C(C)C)C(C)C [Peptide 14, Pal-RNNSRLGNGVLYASVN-NH2] (Palmitoyl-RNNSRLGNGVLYASVN-NH2) | 100 ± 4 | 400 ± 20 | – | more than ten-fold | – |
| CCCCCCCCCCCCCCCC(=O)N[C@@H](CC(N)=O)C(=O)N[C@@H](CC(N)=O)C(=O)N[C@@H](CO)C(=O)N[C@@H](CCCNC(=N)N)C(=O)N[C@@H](CC(C)C)C(=O)NCC(=O)N[C@@H](CC(N)=O)C(=O)NCC(=O)N[C@H](C(=O)N[C@@H](CC(C)C)C(=O)N[C@@H](Cc1ccc(O)cc1)C(N)=O)C(C)C [Peptide 15, Pal-NNSRLGNGVLY-NH2] (Palmitoyl-NNSRLGNGVLY-NH2) | 100 ± 10 | 1500 ± 50 | gradual reduction in potency | – | – |
| CCCCCCCCCCCCCCCC(=O)N[C@@H](CCCNC(=N)N)C(=O)N[C@@H](CC(N)=O)C(=O)N[C@@H](CC(N)=O)C(=O)N[C@@H](CO)C(=O)N[C@@H](CCCNC(=N)N)C(=O)N[C@@H](CC(C)C)C(=O)NCC(=O)N[C@@H](CC(N)=O)C(=O)NCC(=O)N[C@H](C(=O)N[C@@H](CC(C)C)C(=O)N[C@@H](Cc1ccc(O)cc1)C(N)=O)C(C)C [Peptide 16, Pal-RNNSRLGNGVLY-NH2] (Palmitoyl-RNNSRLGNGVLY-NH2) | 70 ± 5 | 500 ± 20 | most potent derivative | – | – |
| CCCCCCCCCCCCCCCC(=O)N[C@@H](CC(N)=O)C(=O)N[C@@H](CO)C(=O)N[C@@H](CCCNC(=N)N)C(=O)N[C@@H](CC(C)C)C(=O)NCC(=O)N[C@@H](CC(N)=O)C(=O)NCC(=O)N[C@H](C(=O)N[C@@H](CC(C)C)C(=O)N[C@@H](Cc1ccc(O)cc1)C(N)=O)C(C)C [Peptide 17, Pal-NSRLGNGVLY-NH2] (Palmitoyl-NSRLGNGVLY-NH2) | 200 ± 10 | 1500 ± 100 | gradual reduction in potency | – | – |
